Source: patent US9078856B2, “Improving efficacy of cancer therapy” (CHILDREN'S MEDICAL CENTER CORPORATION, priority 2010, dated 2015)

Assays:
TRPV4 = molecular target: T1, TRPV4 (Mus musculus, UniProt Q9EPK8); experiment: Calcium influx in Fluo-4 loaded normal and tumor endothelial cells in response to TRPV4 activator; type: cell-based; details: Fluo-4 loaded cells
T1 construct: normal EC that were isolated from the dermis (MDEC cells) of TRAMP mice were used instead; endogenous in cells; host or cells: tumor endothelial cells (TEC) from TRAMP mouse prostate adenocarcinoma; normal EC (MDEC) from TRAMP mouse dermis
T1 sequence (Q9EPK8 whole entry): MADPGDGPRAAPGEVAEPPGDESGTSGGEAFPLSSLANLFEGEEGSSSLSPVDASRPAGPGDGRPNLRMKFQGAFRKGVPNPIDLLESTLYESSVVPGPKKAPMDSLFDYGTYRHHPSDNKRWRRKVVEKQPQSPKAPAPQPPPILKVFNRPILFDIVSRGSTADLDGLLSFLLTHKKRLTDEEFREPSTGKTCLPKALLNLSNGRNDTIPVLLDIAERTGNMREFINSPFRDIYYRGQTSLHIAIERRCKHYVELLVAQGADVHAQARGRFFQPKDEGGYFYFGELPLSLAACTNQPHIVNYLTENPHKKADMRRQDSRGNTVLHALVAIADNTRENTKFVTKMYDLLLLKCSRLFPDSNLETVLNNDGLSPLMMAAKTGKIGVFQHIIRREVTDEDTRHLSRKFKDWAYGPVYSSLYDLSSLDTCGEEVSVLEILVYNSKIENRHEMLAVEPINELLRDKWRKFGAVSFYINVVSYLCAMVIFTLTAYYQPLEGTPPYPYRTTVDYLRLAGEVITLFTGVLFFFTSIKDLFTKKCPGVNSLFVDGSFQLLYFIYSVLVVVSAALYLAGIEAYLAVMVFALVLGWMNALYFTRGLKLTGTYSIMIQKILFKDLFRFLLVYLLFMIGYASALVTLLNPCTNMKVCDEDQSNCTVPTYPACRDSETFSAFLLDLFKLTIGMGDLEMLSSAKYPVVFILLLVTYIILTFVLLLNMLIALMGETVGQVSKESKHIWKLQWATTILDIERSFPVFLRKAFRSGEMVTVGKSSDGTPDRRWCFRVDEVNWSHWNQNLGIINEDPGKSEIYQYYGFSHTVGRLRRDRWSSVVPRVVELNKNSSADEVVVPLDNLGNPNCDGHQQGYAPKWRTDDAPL
Excerpt: Cell Culture. Tumor endothelial cells (EC) cells were isolated from transgenic TRAMP mice bearing prostate adenocarcinoma. Because it is difficult to obtain sufficient quantities of EC cells from the normal mouse prostate (due to its small size), normal EC that were isolated from the dermis (MDEC cells) of TRAMP mice were used instead. Normal EC cells from human dermis (HDEC cells; Cambrex) and an established mouse pancreatic EC cell line (MS1-EC cells; gift of Judah Folkman) served as independent non-tumor EC cell controls. […]
(§1) EC cells adherent to the flexible substrates were loaded with Fluo-4/AM (1 μM) for 30 min, washed 3 times in calcium medium (136 mM NaCl, 4.7 mM KCl, 1.2 mM MgSO4, 1.1 mM CaCl2, 1.2 mM KH2PO4, 5 mM NaHCO3, 5.5 mM glucose, and 20 mM Hepes. pH 7.4) and then exposed to mechanical strain (15% elongation) for 3-4 sec using a Stage Flexer (FLEXCELL® International) apparatus that is fixed on a Nikon upright microscope equipped with CCD camera (Spot-RT slider, Diagnostics Corp, USA). Images were acquired for every 4 seconds and analyzed using IP lab software and Microsoft Excel as described in Matthews, et al. (2006) (J. Cell Sci., 119:508-518).
To confirm whether this difference in TRPV4 expression affects TRPV4 function in these cells, the inventors measured calcium influx in Fluo-4 loaded cells in response to specific TRPV4 activator 4-α-PDD.

human TRPV4 = molecular target: T2, human TRPV4 (Homo sapiens, UniProt Q9HBA0); experiment: Calcium influx in TEC transfected with human TRPV4-EGFP construct; type: cell-based
T2 construct: expressed in transfected cells; host or cells: mouse tumor endothelial cells (TEC) from TRAMP mice, Amaxa nucleofection
T2 sequence (Q9HBA0 whole entry): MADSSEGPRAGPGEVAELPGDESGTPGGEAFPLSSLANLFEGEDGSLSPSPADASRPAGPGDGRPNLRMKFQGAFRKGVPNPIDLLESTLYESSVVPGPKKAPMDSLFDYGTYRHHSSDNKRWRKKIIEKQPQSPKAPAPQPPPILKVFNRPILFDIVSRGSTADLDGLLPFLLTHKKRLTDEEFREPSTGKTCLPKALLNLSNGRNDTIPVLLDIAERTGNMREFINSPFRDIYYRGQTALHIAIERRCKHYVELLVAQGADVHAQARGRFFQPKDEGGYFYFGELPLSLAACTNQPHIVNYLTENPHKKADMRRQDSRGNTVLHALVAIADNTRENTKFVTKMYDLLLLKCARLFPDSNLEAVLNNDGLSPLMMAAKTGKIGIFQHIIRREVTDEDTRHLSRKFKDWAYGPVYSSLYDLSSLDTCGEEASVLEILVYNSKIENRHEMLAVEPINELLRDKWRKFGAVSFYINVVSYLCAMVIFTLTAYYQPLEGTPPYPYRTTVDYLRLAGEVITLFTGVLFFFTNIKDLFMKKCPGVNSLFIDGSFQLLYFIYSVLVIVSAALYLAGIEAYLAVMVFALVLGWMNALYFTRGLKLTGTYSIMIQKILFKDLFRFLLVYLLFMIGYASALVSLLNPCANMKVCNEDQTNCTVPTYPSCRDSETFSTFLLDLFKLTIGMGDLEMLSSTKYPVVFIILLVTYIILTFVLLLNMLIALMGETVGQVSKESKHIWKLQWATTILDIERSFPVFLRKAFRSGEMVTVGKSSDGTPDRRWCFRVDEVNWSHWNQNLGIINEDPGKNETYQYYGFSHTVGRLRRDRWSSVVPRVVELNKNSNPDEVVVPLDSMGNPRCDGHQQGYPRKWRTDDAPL
Procedure: as §1
Next, the inventors transfected TEC with a human TRPV4-EGFP construct and checked its ability to rescue aberrant mechanosensation of tumor EC. […] TRPV4 activator, 4-α-PDD induced almost 8 fold increase in calcium in these cells compared to EGFP alone-transfected TEC (FIG. 2A). The inventors then cultured these TRPV4-overexpressing cells on transglutamase linked gelatin gels of various stiffness (98 to 2,280 Pa) for 6 h and compared their cell spreading over time with that of EGFP-transfected TEC (control). As expected and shown in FIGS. 2B and 2C, TEC cells transfected with only EGFP attached, spread and increases their degree of spreading with the increasing gel stiffness. […]

With `CCCCCCCCCC(=O)O[C@@H]1[C@@H](C)[C@@]2(O)[C@@H](C=C(CO)C[C@@]3(O)C(=O)C(C)=C[C@@H]23)[C@@H]2C(C)(C)[C@]12OC(=O)CCCCCCCCC` [4-α-PDD, 4-α-phorbol 12,13-didecanoate] the “calcium influx induced in nEC” value (TRPV4; normal EC (nEC)) was “rapid robust calcium influx”, the “reduction of induced calcium influx in tumor EC compared with nEC” value (TRPV4; tumor EC vs nEC) was roughly 40% and the “increase in calcium compared to EGFP alone-transfected TEC” value (human TRPV4) was roughly 8 fold.
